Assay type in all cases: functional
The subject of test [1] is Bombyx mori. As to the kind of experiment: Anti-juvenile hormone activity in Bombyx mori Shunrei x Shougetsu 24 hr old third-instar larvae exposed to compound through topical application to dorsal abdomen assessed as precocious metamorphosis at 40 ug/larva relative to untreated control.
Test [2] deals with Bombyx mori. As to the kind of experiment: Anti-juvenile hormone activity in Bombyx mori Shunrei x Shougetsu 24 hr old third-instar larvae exposed to compound through topical application to dorsal abdomen assessed as precocious metamorphosis at 0.1 ug/larva relative to untreated control.
Test [3] has as its system Bombyx mori. The test can be described thus: Anti-juvenile hormone activity in Bombyx mori Shunrei x Shougetsu 24 hr old third-instar larvae exposed to compound through topical application to dorsal abdomen assessed as precocious metamorphosis at 1 ug/larva relative to untreated control.
Test [4] relates to Bombyx mori. The test can be described thus: Anti-juvenile hormone activity in Bombyx mori Shunrei x Shougetsu 24 hr old fifth-instar larvae assessed as time required for onset of cocoon spinning starting from ecdysis day at 1 ug/1 ul applied topically (reference value: 8 +/- 1.2 days).
In test [5] the test system is Bombyx mori. As to the kind of experiment: Anti-juvenile hormone activity in Bombyx mori Shunrei x Shougetsu 24 hr old third-instar larvae exposed to compound through topical application to dorsal abdomen assessed as precocious metamorphosis at 10 ug/larva relative to untreated control.
In test [6] the test system is Bombyx mori. As to the kind of experiment: Anti-juvenile hormone activity in Bombyx mori Shunrei x Shougetsu 24 hr old third-instar larvae exposed to compound through topical application to dorsal abdomen assessed as precocious metamorphosis at 0.1 ug/larva in presence of 10 ug/larva methoprene applied to 24 hr old newly molted fourth-instar larvae relative to untreated control.

Test [7] deals with Bombyx mori. The test can be described thus: Anti-juvenile hormone activity in Bombyx mori Shunrei x Shougetsu 24 hr old third-instar larvae exposed to compound through topical application to dorsal abdomen assessed as precocious metamorphosis at 0.1 ug/larva in presence of 20 ppm 20-hydroxyecdysone applied through diet for first 48 hr to 24 hr old newly molted fourth-instar larvae relative to untreated control.

For test [8], the system named is Bombyx mori. As to the kind of experiment: Anti-juvenile hormone activity in Bombyx mori Shunrei x Shougetsu first 48 hr old newly molted third-instar larvae assessed as precocious metamorphosis at 200 ppm mixed with artificial diet untreated control.
The test system of test [9] is Bombyx mori. The test can be described thus: Anti-juvenile hormone activity in Bombyx mori Shunrei x Shougetsu newly molted fourth-instar larvae assessed as precocious metamorphosis at 10 ug/larva relative to untreated control.
Test [10] deals with Bombyx mori. The test can be described thus: Anti-juvenile hormone activity in Bombyx mori Shunrei x Shougetsu 24 hr old third-instar larvae exposed to compound through topical application to dorsal abdomen assessed as precocious metamorphosis at 0.1 ug/larva in presence of 20 ppm 20-hydroxyecdysone applied through diet for first 48 hr to 24 hr old third-instar larvae relative to untreated control.

Test [11] concerns Bombyx mori. The test can be described thus: Anti-juvenile hormone activity in Bombyx mori Shunrei x Shougetsu 24 hr old third-instar larvae exposed to compound through topical application to dorsal abdomen assessed as precocious metamorphosis at 0.1 ug/larva in presence of 10 ug/larva methoprene applied to 24 hr old third-instar larvae relative to untreated control.
The subject of test [12] is Bombyx mori. As to the kind of experiment: Anti-juvenile hormone activity in Bombyx mori Shunrei x Shougetsu newly molted fourth-instar larvae assessed as precocious metamorphosis at 1 ug/larva relative to untreated control.
In test [13] the test system is Bombyx mori. As to the kind of experiment: Anti-juvenile hormone activity in Bombyx mori Shunrei x Shougetsu 72 hr old second-instar larvae assessed as precocious metamorphosis at 0.1 ug/larva relative to untreated control.
Test [14] deals with Bombyx mori. As to the kind of experiment: Anti-juvenile hormone activity in Bombyx mori Shunrei x Shougetsu 72 hr old second-instar larvae assessed as precocious metamorphosis at 10 ug/larva relative to untreated control.
The test system of test [15] is Bombyx mori. As to the kind of experiment: Anti-juvenile hormone activity in Bombyx mori Shunrei x Shougetsu first 48 hr old newly molted third-instar larvae assessed as precocious metamorphosis at 50 ppm mixed with artificial diet untreated control.
For test [16], the system named is Bombyx mori. The test can be described thus: Anti-juvenile hormone activity in Bombyx mori Shunrei x Shougetsu 72 hr old second-instar larvae assessed as precocious metamorphosis at 1 ug/larva relative to untreated control.

Results on 14 compounds are retold here after ChEMBL document CHEMBL3045873, “Synthesis and anti-juvenile hormone activity of ethyl 4-(2-benzylalkyloxy)benzoates and their enantiomers” (2007).

Take `CCOC(=O)c1ccc(OCC(CC)OC(=O)C(C)(C)C)cc1` (stereo not given): the Activity with Bombyx mori [1] is recorded as 0%; in the test on Bombyx mori [2], 0%; with Bombyx mori [3], 10%; with Bombyx mori [5], 0%. Further, the Time with Bombyx mori [4] came to 12.7 days.
As for `CCCCCCC(COc1ccc(C(=O)OCC)cc1)Cc1ccccc1` (racemic), the Activity in the test with Bombyx mori [1] is listed as 62%; with Bombyx mori [2], 0%; with Bombyx mori [3], 20%; with Bombyx mori [5] it was 42%.
As for `CCCCC(COc1ccc(C(=O)OCC)cc1)Cc1ccccc1` (racemic), the Activity is on record as 0% in the test with Bombyx mori [6]; 12% with Bombyx mori [1]; 100% with Bombyx mori [7]; 5% in the test on Bombyx mori [8]; 10% in the test with Bombyx mori [9]; 95% in the test with Bombyx mori [10]. Also, the Activity is on record as 0% with Bombyx mori [11]; 5% in the test on Bombyx mori [12]; 21% in the test with Bombyx mori [2]; 0% in the test on Bombyx mori [13]; 90% with Bombyx mori [3]; 85% in the test on Bombyx mori [14]. Also, the results for the Activity in the test on Bombyx mori [15], in the test on Bombyx mori [5] and in the test with Bombyx mori [16] were 58%, 34% and 45%, respectively. In addition, the Time with Bombyx mori [4] was 10.1 days.
Take `COC(C)(C)CCC[C@H](C)C/C=C/C(C)=C/C(=O)OC(C)C` [METHOPRENE]: the Time in the test with Bombyx mori [4] amounted to 10.9 days.
`CCCC[C@@H](COc1ccc(C(=O)OCC)cc1)Cc1ccccc1`: the Activity in the test on Bombyx mori [1] was found to be 67%; in the test with Bombyx mori [9], 0%; with Bombyx mori [12] it was 5%; in the test with Bombyx mori [2], 0%; in the test with Bombyx mori [13], 0%; in the test on Bombyx mori [3], 8%. Moreover, the results for the Activity in the test on Bombyx mori [14], with Bombyx mori [5] and with Bombyx mori [16] were 0%, 42% and 0%, respectively. The Time with Bombyx mori [4] worked out at 8.4 days.
Take `CCCC[C@H](COc1ccc(C(=O)OCC)cc1)Cc1ccccc1`: the Activity with Bombyx mori [1] was 15%; with Bombyx mori [9], 0%; with Bombyx mori [12], 10%; with Bombyx mori [2], 52%; in the test with Bombyx mori [13] it was 20%; in the test on Bombyx mori [3], 96%. Moreover, the results for the Activity with Bombyx mori [14], in the test with Bombyx mori [5] and with Bombyx mori [16] were 95%, 17% and 89%, respectively. The Time in the test with Bombyx mori [4] came to 14.3 days.
For `CCCCC[C@H](COc1ccc(C(=O)OCC)cc1)Cc1ccccc1`, the Activity was 17% in the test with Bombyx mori [1], 65% with Bombyx mori [2], 97% in the test on Bombyx mori [3] and 39% in the test with Bombyx mori [5].
For `CCCCCC(COc1ccc(C(=O)OCC)cc1)Cc1ccccc1` (racemic), the Activity is given as 20% in the test with Bombyx mori [1], 37% in the test with Bombyx mori [2], 94% in the test with Bombyx mori [3] and 48% in the test on Bombyx mori [5].
Regarding `CCCCC(COc1ccc(C(=O)O)cc1)Cc1ccccc1` (stereo not given), the Activity with Bombyx mori [8] and in the test on Bombyx mori [15] was 0% in each case.
On to `CCOC(=O)c1ccc(OCC(Cc2ccccc2)Cc2ccccc2)cc1`, for which the Activity with Bombyx mori [1] is 95%; with Bombyx mori [2], 0%; with Bombyx mori [3] it was 35%; in the test with Bombyx mori [5] it was 65%.
As for `CCCCC[C@@H](COc1ccc(C(=O)OCC)cc1)Cc1ccccc1`, the Activity with Bombyx mori [1] worked out at 76%; with Bombyx mori [2], 0%; in the test on Bombyx mori [3], 54%; in the test on Bombyx mori [5] it was 83%.
Turning to `CCCC(COc1ccc(C(=O)OCC)cc1)Cc1ccccc1` (racemic), the Activity with Bombyx mori [1] stood at 87%; in the test on Bombyx mori [2] it was 0%; with Bombyx mori [3], 22%; in the test on Bombyx mori [5], 37%.
In the case of `CCOC(=O)c1ccc(OCC(CC)Cc2ccccc2)cc1` (racemic), the Activity was determined as 0% with Bombyx mori [2], 0% with Bombyx mori [3] and 5% in the test with Bombyx mori [5].
Regarding `CCOC(=O)c1ccc(OCC(Cc2ccccc2)CC(C)C)cc1` (racemic), the Activity in the test on Bombyx mori [1] is reported as 46%; in the test on Bombyx mori [2], 0%; with Bombyx mori [3], 0%; with Bombyx mori [5] it was 22%.
